Read-outs that look alike come from different tables or passages of the source.
Assays:
cancer cells = assay: Survival rate of cancer cells after test compound is added (flow cytometry, Annexin V-FITC/PI, clinical specimen); type: cell-based, patient; conditions: Homo sapiens, 18 h, read-out: Survival rate (%) All cells (Stem cells and ordinary cells)
Summary of the method: (§1)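 Patient tumour or leukaemia cells, identified by cancer-specific stem-cell markers (CD34+/CD38+ for AML), are treated with compound for 18 hours in serum-free IMDM. Apoptosis is then measured as Annexin V-FITC/PI staining by flow cytometry.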

[1] = system: TNF-α secreted by synoviocyte; assay: Content of TNF-α in culture supernatant of synoviocyte of RA model rats given test compound; type: in vivo; conditions: rat RA model, dose 30 mg/kg.2d; normal control 0.38 ± 0.027, NaCl 0.74 ± 0.098
Summary of the method: (§2)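 RA model rats received test compound at 30 mg/kg.2d, with normal control and NaCl groups run in parallel. Synoviocytes were then cultured from the animals, and the culture supernatant was assayed for secreted cytokine or PGE2.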

[2] = system: IL-1β secreted by synoviocyte; assay: Content of IL-1β in culture supernatant of synoviocyte of RA model rats given test compound; type: in vivo; conditions: rat RA model, dose 30 mg/kg.2d; normal control 0.16 ± 0.034, NaCl 0.49 ± 0.136
Summary of the method: as §2

cancer stem cells = assay: Survival rate of cancer stem cells after test compound is added (flow cytometry, Annexin V-FITC/PI, clinical specimen); type: cell-based, patient; conditions: Homo sapiens, 18 h
Summary of the method: as §1

[3] = system: PGE2 secreted by synoviocyte; assay: Content of PGE2 in culture supernatant of synoviocyte of RA model rats given test compound; type: in vivo; conditions: rat RA model, dose 30 mg/kg.2d; normal control 8.34 ± 1.29, NaCl 32.44 ± 10.32
Summary of the method: as §2

[4] = Head and neck squamous cell carcinomas

Which results are given for `CN(C)C[C@@H]1C(=O)O[C@H]2[C@H]1CCC1(CC1)[C@@H]1CCC3(CC3)[C@H]21` [Compound 35]?
viability at 10 µM (cancer cells; AML): 91%; viability at 20 µM (cancer cells; AML): 87%; viability at 10 µM (cancer cells; Brain glioma): 92%; viability at 20 µM (cancer cells; Brain glioma): 87%; viability at 10 µM (cancer cells; Brain tumor): 87%; viability at 20 µM (cancer cells; Brain tumor): 83%; viability at 10 µM (cancer cells; Breast cancer): 93%; viability at 20 µM (cancer cells; Breast cancer): 92%; viability at 10 µM (cancer cells; CLL): 87%; viability at 20 µM (cancer cells; CLL): 83%; viability at 10 µM (cancer cells; CML): 91%; viability at 20 µM (cancer cells; CML): 88%; viability at 10 µM (cancer cells; Children hepatoblastoma): 94%; viability at 20 µM (cancer cells; Children hepatoblastoma): 87%; viability at 10 µM (cancer cells; Colon adenocarcinoma): 91%; viability at 20 µM (cancer cells; Colon adenocarcinoma): 88%; viability at 10 µM (cancer cells; Colorectal cancer): 91%; viability at 20 µM (cancer cells; Colorectal cancer): 87%; viability at 10 µM (cancer cells; Gastric cancer): 92%; viability at 20 µM (cancer cells; Gastric cancer): 89%; viability at 10 µM (cancer cells; Gastrointestinal tumor): 92%; viability at 20 µM (cancer cells; Gastrointestinal tumor): 89%; viability at 10 µM (cancer cells; Glioma): 87%; viability at 20 µM (cancer cells; Glioma): 83%; viability at 10 µM (cancer cells; [4]): 91%; viability at 20 µM (cancer cells; [4]): 87%; viability at 10 µM (cancer cells; Laryngeal cancer): 89%; viability at 20 µM (cancer cells; Laryngeal cancer): 86%; viability at 10 µM (cancer cells; Liver cancer): 89%; viability at 20 µM (cancer cells; Liver cancer): 86%; viability at 10 µM (cancer cells; Lung adenocarcinoma): 91%; viability at 20 µM (cancer cells; Lung adenocarcinoma): 87%; viability at 10 µM (cancer cells; Lung cancer): 91%; viability at 20 µM (cancer cells; Lung cancer): 88%; viability at 10 µM (cancer cells; Malignant melanoma): 91%; viability at 20 µM (cancer cells; Malignant melanoma): 84%; viability at 10 µM (cancer cells; Nasopharynx cancer): 93%; viability at 20 µM (cancer cells; Nasopharynx cancer): 92%; viability at 10 µM (cancer cells; Ovarian cancer): 91%; viability at 20 µM (cancer cells; Ovarian cancer): 88%; viability at 10 µM (cancer cells; Pancreatic cancer): 88%; viability at 20 µM (cancer cells; Pancreatic cancer): 81%; viability at 10 µM (cancer cells; Prostate cancer): 88%; viability at 20 µM (cancer cells; Prostate cancer): 85%; viability at 10 µM (cancer cells; Retinoblastoma): 91%; viability at 20 µM (cancer cells; Retinoblastoma): 89%; viability at 10 µM (cancer cells; Skin cancer): 92%; viability at 20 µM (cancer cells; Skin cancer): 89%; Content of TNF-α in culture supernatant of synoviocyte (x ± s) [1]: 0.57 ± 0.057 ng/mL; Content of IL-1β in culture supernatant of synoviocyte (x ± s) [2]: 0.41 ± 0.056 ng/mL; viability at 10 µM (cancer stem cells; AML): 82%; viability at 20 µM (cancer stem cells; AML): 73%; viability at 10 µM (cancer stem cells; Brain glioma): 84%; viability at 20 µM (cancer stem cells; Brain glioma): 78%; viability at 10 µM (cancer stem cells; Brain tumor): 81%; viability at 20 µM (cancer stem cells; Brain tumor): 75%; viability at 10 µM (cancer stem cells; Breast cancer): 86%; viability at 20 µM (cancer stem cells; Breast cancer): 78%; viability at 10 µM (cancer stem cells; CLL): 81%; viability at 20 µM (cancer stem cells; CLL): 75%; viability at 10 µM (cancer stem cells; CML): 84%; viability at 20 µM (cancer stem cells; CML): 78%; viability at 10 µM (cancer stem cells; Children hepatoblastoma): 87%; viability at 20 µM (cancer stem cells; Children hepatoblastoma): 76%; viability at 10 µM (cancer stem cells; Colon adenocarcinoma): 84%; viability at 20 µM (cancer stem cells; Colon adenocarcinoma): 78%; viability at 10 µM (cancer stem cells; Colorectal cancer): 82%; viability at 20 µM (cancer stem cells; Colorectal cancer): 73%; viability at 10 µM (cancer stem cells; Gastric cancer): 85%; viability at 20 µM (cancer stem cells; Gastric cancer): 77%; viability at 10 µM (cancer stem cells; Gastrointestinal tumor): 85%; viability at 20 µM (cancer stem cells; Gastrointestinal tumor): 77%; viability at 10 µM (cancer stem cells; Glioma): 81%; viability at 20 µM (cancer stem cells; Glioma): 75%; viability at 10 µM (cancer stem cells; [4]): 82%; viability at 20 µM (cancer stem cells; [4]): 73%; viability at 10 µM (cancer stem cells; Laryngeal cancer): 82%; viability at 20 µM (cancer stem cells; Laryngeal cancer): 76%; viability at 10 µM (cancer stem cells; Liver cancer): 84%; viability at 20 µM (cancer stem cells; Liver cancer): 74%; viability at 10 µM (cancer stem cells; Lung adenocarcinoma): 82%; viability at 20 µM (cancer stem cells; Lung adenocarcinoma): 73%; viability at 10 µM (cancer stem cells; Lung cancer): 84%; viability at 20 µM (cancer stem cells; Lung cancer): 78%; viability at 10 µM (cancer stem cells; Malignant melanoma): 87%; viability at 20 µM (cancer stem cells; Malignant melanoma): 75%; viability at 10 µM (cancer stem cells; Nasopharynx cancer): 86%; viability at 20 µM (cancer stem cells; Nasopharynx cancer): 78%; viability at 10 µM (cancer stem cells; Ovarian cancer): 84%; viability at 20 µM (cancer stem cells; Ovarian cancer): 78%; viability at 10 µM (cancer stem cells; Pancreatic cancer): 79%; viability at 20 µM (cancer stem cells; Pancreatic cancer): 72%; viability at 10 µM (cancer stem cells; Prostate cancer): 85%; viability at 20 µM (cancer stem cells; Prostate cancer): 79%; viability at 10 µM (cancer stem cells; Retinoblastoma): 88%; viability at 20 µM (cancer stem cells; Retinoblastoma): 81%; viability at 10 µM (cancer stem cells; Skin cancer): 85%; viability at 20 µM (cancer stem cells; Skin cancer): 77%; Content of PGE2 in culture supernatant of synoviocyte (x ± s) [3]: 21.54 ± 1.32 ng/mL

From patent US10463644B2, “Uses of sesquiterpene lactone compounds and their derivatives in drugs preparation” (ACCENDATECH, priority 2013, dated 2019)
